Reference: the supplement of paper PMC10307832

Assays:
Experiment in all cases: relative viability (nuclei count vs DMSO), 5 days (fraction); higher = more cells survive
Omipalisib + Trametinib = compound: COc1ncc(-c2ccc3nccc(-c4ccnnc4)c3c2)cc1NS(=O)(=O)c1ccc(F)cc1F [Omipalisib] + CC(=O)Nc1cccc(-n2c(=O)n(C3CC3)c(=O)c3c(Nc4ccc(I)cc4F)n(C)c(=O)c(C)c32)c1 [Trametinib] (partner 0.02 µM)
In short: (§1)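 Relative viability equals treated-well nuclei counts divided by vehicle-well nuclei counts. Counts came from 4× images of lung cancer cell lines grown in 1536-well plates for 5 days after pin-tool dosing on the day after seeding. Dosing used one drug alone or a fixed anchor-drug dose plus five library-drug doses (not always all listed) in √10 steps, and values are medians of duplicate plates.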

Omipalisib + Tozasertib = compound: COc1ncc(-c2ccc3nccc(-c4ccnnc4)c3c2)cc1NS(=O)(=O)c1ccc(F)cc1F [Omipalisib] + Cc1cc(Nc2cc(N3CCN(C)CC3)nc(Sc3ccc(NC(=O)C4CC4)cc3)n2)n[nH]1 [Tozasertib] (partner 0.1 µM)
In short: as §1

Omipalisib + Phenformin = compound: COc1ncc(-c2ccc3nccc(-c4ccnnc4)c3c2)cc1NS(=O)(=O)c1ccc(F)cc1F [Omipalisib] + N=C(N)NC(=N)NCCc1ccccc1 [Phenformin] (partner 250 µM)
In short: as §1

Omipalisib + Olaparib = compound: COc1ncc(-c2ccc3nccc(-c4ccnnc4)c3c2)cc1NS(=O)(=O)c1ccc(F)cc1F [Omipalisib] + O=C(c1cc(Cc2n[nH]c(=O)c3ccccc23)ccc1F)N1CCN(C(=O)C2CC2)CC1 [Olaparib] (partner 8 µM)
In short: as §1

Omipalisib + Linsitinib = compound: COc1ncc(-c2ccc3nccc(-c4ccnnc4)c3c2)cc1NS(=O)(=O)c1ccc(F)cc1F [Omipalisib] + C[C@]1(O)C[C@@H](c2nc(-c3ccc4ccc(-c5ccccc5)nc4c3)c3c(N)nccn32)C1 [Linsitinib] (partner 1 µM)
In short: as §1

Omipalisib + Alpelisib = compound: COc1ncc(-c2ccc3nccc(-c4ccnnc4)c3c2)cc1NS(=O)(=O)c1ccc(F)cc1F [Omipalisib] + Cc1nc(NC(=O)N2CCC[C@H]2C(N)=O)sc1-c1ccnc(C(C)(C)C(F)(F)F)c1 [Alpelisib] (partner 2 µM)
In short: as §1

Row | Cell Line | relative viability (Omipalisib + Trametinib; first compound 0.0003 µM) | relative viability (Omipalisib + Trametinib; first compound 0.003 µM) | relative viability (Omipalisib + Trametinib; first compound 0.03 µM) | relative viability (Omipalisib + Tozasertib; first compound 0.0003 µM) | relative viability (Omipalisib + Tozasertib; first compound 0.003 µM) | relative viability (Omipalisib + Tozasertib; first compound 0.03 µM) | relative viability (Omipalisib + Phenformin; first compound 0.0003 µM) | relative viability (Omipalisib + Phenformin; first compound 0.003 µM) | relative viability (Omipalisib + Phenformin; first compound 0.03 µM) | relative viability (Omipalisib + Olaparib; first compound 0.0003 µM) | relative viability (Omipalisib + Olaparib; first compound 0.003 µM) | relative viability (Omipalisib + Olaparib; first compound 0.03 µM) | relative viability (Omipalisib + Linsitinib; first compound 0.0003 µM) | relative viability (Omipalisib + Linsitinib; first compound 0.003 µM) | relative viability (Omipalisib + Linsitinib; first compound 0.03 µM) | relative viability (Omipalisib + Alpelisib; first compound 0.0003 µM) | relative viability (Omipalisib + Alpelisib; first compound 0.003 µM) | relative viability (Omipalisib + Alpelisib; first compound 0.03 µM)
1 | NCI-H1650 | 0.438 | 0.633 | 0.512 | 0.401 | 0.375 | 0.312 | 0.371 | 0.257 | 0.168 | 0.774 | 0.807 | 0.576 |  |  |  |  |  | 
2 | NCI-H1651 | 0.712 | 0.711 | 0.535 | 0.711 | 0.384 | 0.539 | 0.274 | 0.307 | 0.214 | 0.177 | 0.177 | 0.172 | 0.931 | 0.737 | 0.417 | 0.915 | 0.847 | 0.69
3 | NCI-H2126 | 0.487 | 0.397 | 0.327 | 0.712 | 0.612 | 0.353 | 0.489 | 0.425 | 0.292 | 0.888 | 0.725 | 0.412 | 0.712 | 0.644 | 0.422 | 0.696 | 0.583 | 0.474
4 | LCLC-103H | 0.602 | 0.524 | 0.401 | 0.406 | 0.361 | 0.18 | 0.319 | 0.29 | 0.174 | 0.781 | 0.726 | 0.397 | 1.17 | 1.08 | 0.428 | 0.96 | 0.889 | 0.643
5 | NCI-H23 | 0.353 | 0.244 | 0.152 | 0.342 | 0.295 | 0.265 | 0.773 | 0.635 | 0.576 | 0.384 | 0.242 | 0.143 | 0.596 | 0.397 | 0.346 | 0.596 | 0.444 | 0.381
6 | EPLC-272H | 0.275 | 0.256 | 0.14 | 0.254 | 0.186 | 0.165 | 0.294 | 0.253 | 0.193 | 0.712 | 0.36 | 0.131 | 1.38 | 0.893 | 0.248 | 0.883 | 0.794 | 0.477
7 | NCI-H1975 | 0.331 | 0.207 | 0.165 | 0.786 | 0.502 | 0.23 | 0.412 | 0.292 | 0.162 | 0.882 | 0.521 | 0.239 | 0.857 | 0.614 | 0.206 | 0.695 | 0.518 | 0.253
8 | NCI-H2170 | 0.801 | 0.545 | 0.303 | 0.607 | 0.482 | 0.354 | 0.459 | 0.432 | 0.375 | 0.534 | 0.456 | 0.226 |  |  |  | 0.704 | 0.643 | 0.484
9 | NCI-H358 | 0.136 | 0.115 | 0.107 | 0.126 | 0.108 | 0.0977 | 0.259 | 0.211 | 0.145 | 0.544 | 0.38 | 0.324 | 0.639 | 0.457 | 0.289 | 0.963 | 0.594 | 0.524
10 | PC-3 [JPC-3] | 0.738 | 0.664 | 0.439 | 1.01 | 0.856 | 0.625 | 0.475 | 0.477 | 0.414 | 1.05 | 1.16 | 0.915 | 0.962 | 0.976 | 0.92 | 1 | 0.993 | 0.863
11 | A-427 | 0.665 | 0.38 | 0.358 | 0.206 | 0.188 | 0.163 | 0.382 | 0.224 | 0.337 | 0.699 | 0.604 | 0.611 | 1.11 | 1.09 | 0.968 | 1.1 | 0.993 | 1.03
12 | LU99A | 0.5 | 0.367 | 0.22 | 0.289 | 0.233 | 0.215 | 0.802 | 0.695 | 0.578 | 0.271 | 0.27 | 0.214 | 0.484 | 0.382 | 0.261 | 0.492 | 0.439 | 0.277
13 | H3255 | 0.56 | 0.421 | 0.277 | 0.554 | 0.556 | 0.286 | 0.365 | 0.39 | 0.269 | 0.559 | 0.526 | 0.409 | 0.999 | 0.888 | 0.485 | 0.714 | 0.606 | 0.444
14 | NCI-H1437 | 0.583 | 0.31 | 0.209 | 0.422 | 0.348 | 0.244 | 0.334 | 0.249 | 0.333 | 0.673 | 0.603 | 0.537 | 0.952 | 0.824 | 0.404 | 0.92 | 0.707 | 0.45
15 | LC-2-ad | 0.86 | 0.754 | 0.605 | 0.349 | 0.401 | 0.289 | 0.438 | 0.368 | 0.258 | 0.779 | 0.796 | 0.639 | 0.848 | 0.587 | 0.314 | 0.858 | 0.856 | 0.425
16 | NCI-H2342 | 0.732 | 0.583 | 0.449 | 0.425 | 0.442 | 0.354 | 0.56 | 0.482 | 0.424 | 0.411 | 0.376 | 0.239 |  |  |  |  |  | 
17 | ChaGo-K-1 | 0.818 | 0.747 | 0.666 | 0.242 | 0.202 | 0.167 | 0.486 | 0.401 | 0.406 | 0.455 | 0.38 | 0.399 |  |  |  |  |  | 
18 | SW 900 | 0.625 | 0.915 | 0.396 | 0.556 | 0.562 | 0.423 | 0.513 | 0.321 | 0.424 | 0.862 | 0.544 | 0.417 |  |  |  |  |  | 
